# Results published in patent US20070275084A1, “Compositions And Methods For The Treatment Of Skin Damage” (priority 2003, published 2007).
# Tested on: human skin fibroblasts
# Assay: Collagen synthesis by human skin fibroblasts (3H-proline incorporation into collagenous protein)
# Type: cell-based
# Details: carnosine alone 60 mM, 48 h (FIG. 1 column 11)
# Method: After starving for up to 6 hours, cells were exposed to a mixture of BMF and carnosine or the appropriate controls for 48 hours. Tritiated proline (L-[5-^3H] proline) was included in the culture medium and at the end of the experiments, the amount of ^3H proline incorporated into collagenous protein was determined as an index of collagen synthesis. A subset of cultures were treated with […] for the final 6-8 hours of the culture to determine the collagen-specific nature of incorporated radioactivity.
# Human diploid ftbroblasts were obtained from neonatal foreskins collected from the Womens' and Chldrens' Hospital (North Adelaide, Australia). […]
# Collagen was purified from the culture medium by successive precipitation with salt solutions at acid and neutral pH. […] The amount of radioactivity in the samples was determined using a Stcinillation counter (Wailac) as an index of the amount of new collagen synthesised. The radioactivity in each replicate well was normalised as a percentage of the average radioactivity present in the control wells from each experiment. […]
compound,measurement,value
"NCCC(=O)N[C@@H](Cc1c[nH]cn1)C(=O)O [Carnosine, beta-alanyl-L-histidine]",collagen synthesis,did not stimulate collagen synthesis
